Assay results taken from patent US6369069B1 (Aventis Pharma Deutschland GmbH, priority 1998, dated 2002).

What follows are molecules tested on Na^+-dependent Cl^−/HCO3^− exchanger (NCBE) (assay: Inhibition of the Na+-dependent Cl−/HCO3− exchanger (NCBE) in human endothelial cells (pHi recovery, BCECF fluorescence, FLIPR)). Settings: 10 μM.
Type: cell-based
Procedure, shortened: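 Fluorescence rise (FLIPR, 2 min, 35 °C) tracked pHi recovery in acid-loaded, BCECF-loaded ECV-304 cells after adding Na+- and HCO3−-containing buffer with 50 μM HOE 642 and graded compound doses. Inhibition was calculated against full-recovery and bicarbonate-free no-recovery controls.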
In the case of `COCCC(=O)N(Cc1ccc(-c2ccccc2S(=O)(=O)NC#N)cc1)Cc1ccccc1C` [Example 322], the “Residual activity % of the NCBE at 10 μM” value is reported as 66.3%.
In the case of `N#CNS(=O)(=O)c1ccccc1-c1ccc(CN(Cc2ccccc2)C(=O)Nc2c(F)cccc2F)cc1` [Example 297], the “Residual activity % of the NCBE at 10 μM” value is reported as 80.4%.
With `N#CNS(=O)(=O)c1ccccc1-c1ccc(CN(Cc2cccc3ccccc23)C(=O)Cc2ccc(O)cc2)cc1` [Example 284] the “Residual activity % of the NCBE at 10 μM” value was 52.9%.
With `Cc1ccccc1CN(Cc1ccc(-c2ccccc2S(=O)(=O)NC#N)cc1)C(=O)CCOc1ccccc1` [Example 342] the “Residual activity % of the NCBE at 10 μM” value was 85.3%.
`N#CNS(=O)(=O)c1ccccc1-c1ccc(CN(Cc2ccccc2Cl)C(=O)c2ccccc2Cl)cc1` [Example 101] was tested, and the “Residual activity % of the NCBE at 10 μM” value was 62.6%.
`N#CNS(=O)(=O)c1ccccc1-c1ccc(CN(Cc2ccccn2)C(=O)CCCCc2cccs2)cc1` [Example 220] was tested, and the “Residual activity % of the NCBE at 10 μM” value was 73.2%.
In the case of `N#CNS(=O)(=O)c1ccccc1-c1ccc(CN(C(=O)CC2CCCC2)C2CCCc3ccccc32)cc1` (stereo not drawn) [Example 365], the “Residual activity % of the NCBE at 10 μM” value is reported as 45.1%.
In the case of `C[C@H](c1ccccc1)N(Cc1ccc(-c2ccccc2S(=O)(=O)NC#N)cc1)C(=O)c1cc2ccccc2s1` [Example 78], the “Residual activity % of the NCBE at 10 μM” value is reported as 88.5%.
In the case of `COc1ccccc1C(=O)N(Cc1ccc(-c2ccccc2S(=O)(=O)NC#N)cc1)Cc1cccc(Cl)c1Cl` [Example 329], the “Residual activity % of the NCBE at 10 μM” value is reported as 25.7%.
`N#CNS(=O)(=O)c1ccccc1-c1ccc(CN(Cc2ccccc2Cl)C(=O)c2cc3ccccc3s2)cc1` [Example 71] was tested, and the “Residual activity % of the NCBE at 10 μM” value was 35.2%.
In the case of `COc1cccc(CN(Cc2ccc(-c3ccccc3S(=O)(=O)NC#N)cc2)C(=O)NC2CCCCC2)c1` [Example 304], the “Residual activity % of the NCBE at 10 μM” value is reported as 56.0%.
With `C[C@H](c1ccccc1)N(Cc1ccc(-c2ccccc2S(=O)(=O)NC#N)cc1)C(=O)c1ccccc1F` [Example 98] the “Residual activity % of the NCBE at 10 μM” value was 98.0%.
`COc1cccc(CC(=O)N(CCO)Cc2ccc(-c3ccccc3S(=O)(=O)NC#N)cc2)c1` [Example 20] was tested, and the “Residual activity % of the NCBE at 10 μM” value was 37.1%.
With `COc1ccc(CC(=O)N(CCOc2ccccc2)Cc2ccc(-c3ccccc3S(=O)(=O)NC#N)cc2)cc1` [Example 173] the “Residual activity % of the NCBE at 10 μM” value was 76.4%.
With `N#CNS(=O)(=O)c1ccccc1-c1ccc(CN(Cc2cccc(Cl)c2Cl)C(=O)CCOc2ccccc2)cc1` [Example 339] the “Residual activity % of the NCBE at 10 μM” value was 46.8%.
`COc1ccc(CCN(Cc2ccc(-c3ccccc3S(=O)(=O)NC#N)cc2)C(=O)C(c2ccccc2)c2ccccc2)cc1` [Example 120] was tested, and the “Residual activity % of the NCBE at 10 μM” value was 81.3%.
With `COc1ccccc1C(=O)N(Cc1ccc(-c2ccccc2S(=O)(=O)NC#N)cc1)Cc1ccc2ccccc2c1` [Example 330] the “Residual activity % of the NCBE at 10 μM” value was 14.4%.
`N#CNS(=O)(=O)c1ccccc1-c1ccc(CN(Cc2cccc3ccccc23)C(=O)CCS(=O)(=O)c2ccccc2)cc1` [Example 280] was tested, and the “Residual activity % of the NCBE at 10 μM” value was 63.3%.
For `N#CNS(=O)(=O)c1ccccc1-c1ccc(CN(Cc2ccccc2F)C(=O)Cc2cccs2)cc1` [Example 316], the “Residual activity % of the NCBE at 10 μM” value was 14.4%.
For `CC(C)CN(Cc1ccc(-c2ccccc2S(=O)(=O)NC#N)cc1)C(=O)Cc1ccccc1` [Example 122], the “Residual activity % of the NCBE at 10 μM” value was 90.6%.
For `COc1ccc(CC(=O)N(Cc2ccc(F)cc2)Cc2ccc(-c3ccccc3S(=O)(=O)NC#N)cc2)cc1` [Example 177], the “Residual activity % of the NCBE at 10 μM” value was 64.4%.
With `N#CNS(=O)(=O)c1ccccc1-c1ccc(CN(Cc2cccs2)C(=O)NC2CCCCC2)cc1` [Example 296] the “Residual activity % of the NCBE at 10 μM” value was 31.7%.
With `N#CNS(=O)(=O)c1ccccc1-c1ccc(CN(Cc2ccco2)C(=O)Cc2cccs2)cc1` [Example 139] the “Residual activity % of the NCBE at 10 μM” value was 48.5%.
In the case of `N#CNS(=O)(=O)c1ccccc1-c1ccc(CN(Cc2ccc(F)cc2)C(=O)Cc2cccs2)cc1` [Example 147], the “Residual activity % of the NCBE at 10 μM” value is reported as 53.2%.
For `N#CNS(=O)(=O)c1ccccc1-c1ccc(CN(Cc2ccccc2)C(=O)C2CCCCC2)cc1` [Example 13], the “Residual activity % of the NCBE at 10 μM” value was 74.7%.
With `CN(Cc1ccc(-c2ccccc2S(=O)(=O)NC#N)cc1)C(=O)CCCc1cccs1` [Example 190] the “Residual activity % of the NCBE at 10 μM” value was 43.4%.
`N#CNS(=O)(=O)c1ccccc1-c1ccc(CN(C(=O)Cc2cccs2)C2CCc3ccccc32)cc1` (stereo not drawn) [Example 314] was tested, and the “Residual activity % of the NCBE at 10 μM” value was 14.4%.
With `CN(Cc1ccc(-c2ccccc2S(=O)(=O)NC#N)cc1)C(=O)Cc1csc2ccccc12` [Example 214] the “Residual activity % of the NCBE at 10 μM” value was 44.3%.
With `CC(C)(C)CC(=O)N(CCOc1ccccc1)Cc1ccc(-c2ccccc2S(=O)(=O)NC#N)cc1` [Example 160] the “Residual activity % of the NCBE at 10 μM” value was 71.6%.
In the case of `COc1ccccc1CN(Cc1ccc(-c2ccccc2S(=O)(=O)NC#N)cc1)C(=O)c1cc2ccccc2s1` [Example 74], the “Residual activity % of the NCBE at 10 μM” value is reported as 54.7%.
For `N#CNS(=O)(=O)c1ccccc1-c1ccc(CN(CCc2cccs2)C(=O)Cc2cccs2)cc1` [Example 141], the “Residual activity % of the NCBE at 10 μM” value was 71.1%.
With `N#CNS(=O)(=O)c1ccccc1-c1ccc(CN(Cc2ccc(C(F)(F)F)cc2)C(=O)c2ccccc2F)cc1` [Example 99] the “Residual activity % of the NCBE at 10 μM” value was 89.6%.
In the case of `Cc1ccccc1CN(Cc1ccc(-c2ccccc2S(=O)(=O)NC#N)cc1)C(=O)CC1CCCCC1` [Example 352], the “Residual activity % of the NCBE at 10 μM” value is reported as 35.2%.
`N#CNS(=O)(=O)c1ccccc1-c1ccc(CN(CCO)C(=O)C2CCCCC2)cc1` [Example 14] was tested, and the “Residual activity % of the NCBE at 10 μM” value was 88.7%.
For `N#CNS(=O)(=O)c1ccccc1-c1ccc(CN(Cc2ccccc2F)C(=O)CC2CCCCC2)cc1` [Example 356], the “Residual activity % of the NCBE at 10 μM” value was 47.4%.
`C#CCN(Cc1ccc(-c2ccccc2S(=O)(=O)NC#N)cc1)C(=O)C(=O)c1ccco1` [Example 248] was tested, and the “Residual activity % of the NCBE at 10 μM” value was 66.6%.
For `N#CNS(=O)(=O)c1ccccc1-c1ccc(CN(Cc2ccccc2)C(=O)C(=O)c2ccco2)cc1` [Example 245], the “Residual activity % of the NCBE at 10 μM” value was 73.0%.
With `CC(C)(C)CC(=O)N(CCc1cccs1)Cc1ccc(-c2ccccc2S(=O)(=O)NC#N)cc1` [Example 159] the “Residual activity % of the NCBE at 10 μM” value was 61.2%.
In the case of `COc1ccc(CC(=O)N(Cc2ccc(-c3ccccc3S(=O)(=O)NC#N)cc2)Cc2ccccc2Cl)cc1` [Example 174], the “Residual activity % of the NCBE at 10 μM” value is reported as 50.2%.
`COC(=O)C(Cc1ccccc1)N(Cc1ccc(-c2ccccc2S(=O)(=O)NC#N)cc1)C(=O)Cc1csc2ccccc12` (stereo not drawn) [Example 217] was tested, and the “Residual activity % of the NCBE at 10 μM” value was 46.0%.
`COc1ccccc1CN(Cc1ccc(-c2ccccc2S(=O)(=O)NC#N)cc1)C(=O)c1cccs1` [Example 84] was tested, and the “Residual activity % of the NCBE at 10 μM” value was 54.7%.
`COc1ccc(CC(=O)N(CCc2cccs2)Cc2ccc(-c3ccccc3S(=O)(=O)NC#N)cc2)cc1` [Example 172] was tested, and the “Residual activity % of the NCBE at 10 μM” value was 89.7%.
`N#CNS(=O)(=O)c1ccccc1-c1ccc(CN(Cc2ccc(Cl)cc2)C(=O)CCC2CCCCC2)cc1` [Example 10] was tested, and the “Residual activity % of the NCBE at 10 μM” value was 84.9%.
With `N#CNS(=O)(=O)c1ccccc1-c1ccc(CN(Cc2nc3ccccc3[nH]2)C(=O)CCCc2cccs2)cc1` [Example 192] the “Residual activity % of the NCBE at 10 μM” value was 49.1%.
In the case of `N#CNS(=O)(=O)c1ccccc1-c1ccc(CN(C(=O)CCOc2ccccc2)C2CCCc3ccccc32)cc1` (stereo not drawn) [Example 345], the “Residual activity % of the NCBE at 10 μM” value is reported as 39.8%.
In the case of `COc1ccc(CN(Cc2ccc(-c3ccccc3S(=O)(=O)NC#N)cc2)C(=O)c2ccccc2F)cc1` [Example 39], the “Residual activity % of the NCBE at 10 μM” value is reported as 51.3%.
With `CCN(Cc1ccc(-c2ccccc2S(=O)(=O)NC#N)cc1)C(=O)CCCCc1cccs1` [Example 223] the “Residual activity % of the NCBE at 10 μM” value was 53.8%.
For `N#CNS(=O)(=O)c1ccccc1-c1ccc(CN(Cc2ccccn2)C(=O)Cc2csc3ccccc23)cc1` [Example 212], the “Residual activity % of the NCBE at 10 μM” value was 60.2%.
`COC(=O)C(Cc1ccccc1)N(Cc1ccc(-c2ccccc2S(=O)(=O)NC#N)cc1)C(=O)Cc1ccsc1` (stereo not drawn) [Example 233] was tested, and the “Residual activity % of the NCBE at 10 μM” value was 68.1%.
`CC(=O)N(Cc1ccc(-c2ccccc2S(=O)(=O)NC#N)cc1)Cc1ccco1` [Example 178] was tested, and the “Residual activity % of the NCBE at 10 μM” value was 70.6%.

Same assay, conditions: 10 μM compound; human endothelial cells (ECV-304); related to 100% and 0% pHi recovery controls
With `COCCOc1cc(-c2ccccc2S(=O)(=O)NC#N)ccc1CN(Cc1ccccc1)C(=O)Cc1cccs1` [Example 560, 4′-{[Benzyl-2-(thiophen-2-yl)acetylamino]methyl}-3′-(2-methoxy)ethoxy-biphenyl-2-sulfonylcyanamide] the “Residual activity of the NCBE at 10 μM” value was 8.0%.
For `COCCOc1cc(-c2ccccc2S(=O)(=O)NC#N)ccc1CN(Cc1ccccc1)S(=O)(=O)c1cccs1` [Example 558, 4′-{[Benzyl(thiophene-2-sulfonyl)amino]methyl}-3′-(2-methoxy)ethoxy-biphenyl-2-sulfonylcyanamide], the “Residual activity of the NCBE at 10 μM” value was 30%.

Same assay, conditions: compound at 10 μM; R(3) to R(7) hydrogen series
In the case of `N#CNS(=O)(=O)c1ccccc1-c1ccc(CN(CC2(c3ccccc3)CCCC2)C(=O)Cc2ccco2)cc1` [Example 394], the “Residual activity % of the NCBE at 10 μM” value is reported as 72.5%.
For `N#CNS(=O)(=O)c1ccccc1-c1ccc(CN(Cc2cccc3ccccc23)C(=O)Cc2ccco2)cc1` [Example 391], the “Residual activity % of the NCBE at 10 μM” value was 55.4%.
With `N#CNS(=O)(=O)c1ccccc1-c1ccc(CN(Cc2cccc(-c3ccccc3)c2)C(=O)CC2CCCC2)cc1` [Example 367] the “Residual activity % of the NCBE at 10 μM” value was 25.5%.
`CC(C(=O)N(Cc1ccccc1)Cc1ccc(-c2ccccc2S(=O)(=O)NC#N)cc1)c1ccsc1` (stereo not drawn) [Example 388] was tested, and the “Residual activity % of the NCBE at 10 μM” value was 63.7%.

Same assay, conditions: compound at 10 μM; sub-table with R7 substituent
In the case of `Cc1ccc(-c2ccc(CN(Cc3cccc4ccccc34)C(=O)CC3CCCCC3)cc2)c(S(=O)(=O)NC#N)c1` [Example 546], the “Residual activity % of the NCBE at 10 μM” value is reported as 63.6%.
For `Cc1ccc(-c2ccc(CN(Cc3ccccc3)C(=O)C(C)c3cccs3)cc2)c(S(=O)(=O)NC#N)c1` (stereo not drawn) [Example 521], the “Residual activity % of the NCBE at 10 μM” value was 88.2%.
For `Cc1ccc(-c2ccc(CN(Cc3ccccc3Cl)C(=O)Cc3ccsc3)cc2)c(S(=O)(=O)NC#N)c1` [Example 540], the “Residual activity % of the NCBE at 10 μM” value was 64.6%.
With `Cc1ccc(-c2ccc(CN(Cc3ccc4ccccc4c3)C(=O)Cc3ccsc3)cc2)c(S(=O)(=O)NC#N)c1` [Example 539] the “Residual activity % of the NCBE at 10 μM” value was 65.2%.
